Target: human PD-L1 (Homo sapiens (Human), UniProt Q9NZQ7)
Assay: Enzyme-Linked Immunosorbent Assay (ELISA), PD-1/PD-L1 binding
Conditions: PD-1/PD-L1 ELISA, human PD-L1 coated plates, Table 1
Experimental: 96 Well plates were coated with […] of human PD-L1 (obtained from R&D) in PBS overnight at 4° C. The wells were then blocked with 2% BSA in PBS (W/V) with 0.05% TWEEN-20 for 1 hour at 37° C. The plates were washed 3 times with PBS/0.05% TWEEN-20 and the compounds were serial diluted (1:5) in dilution medium and added to the ELISA plates. Human PD-1 […] 0.31 μg/mL (ACRO Biosystems) were added and incubated for 1 hour at 37° C. then washed 3 times with PBS/0.05% TWEEN-20. A second block was performed with 2% BSA in PBS (W/V)/0.05% TWEEN-20 for 10 min at 37° C. and the plates were washed 3 times with PBS/0.05% TWEEN-20. Streptavidin-HRP was added for 1 hour at 37° C. then the plates were washed 3 times with PBS/0.05% TWEEN-20. TMB substrate was added and reacted for 20 min at 37° C. A stop solution (2 N aqueous H2SO4) was added. The absorbance was read at 450 nm using a micro-plate spectrophotometer.
Using the methods described in the Examples above, the compounds in Table 2 were prepared & tested for biological activity using the ELISA method described above.

human PD-L1, sequence (Q9NZQ7 19-239): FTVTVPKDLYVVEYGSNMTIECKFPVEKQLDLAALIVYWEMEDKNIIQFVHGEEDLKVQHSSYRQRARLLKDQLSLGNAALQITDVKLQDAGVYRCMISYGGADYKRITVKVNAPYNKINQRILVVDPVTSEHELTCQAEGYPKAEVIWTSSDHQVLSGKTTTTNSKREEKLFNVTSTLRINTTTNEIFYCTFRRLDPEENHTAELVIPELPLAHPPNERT

IC50 | Compound
10 to 1000 nM | COc1cc(-c2cccc(-c3cccc(NC(=O)c4ccccn4)c3C)c2C)cc(F)c1CN1CCC(C(=O)O)CC1 [Example 1.358]
10 to 1000 nM | COc1cc(-c2cccc(-c3cccc(NC(=O)c4ccc(C(=O)O)cn4)c3C)c2C)cc(F)c1CNCCO [Example 1.333]
< 10 nM | COc1cc(-c2cccc(-c3cccc(NC(=O)c4c[nH]c(=O)n(C)c4=O)c3C)c2C)cc(F)c1CN[C@H](C)CO [Example 1.225]
< 10 nM | COc1cc(-c2cccc(-c3cccc(NC(=O)c4ccccn4)c3C)c2C)cc(F)c1CN1CC(O)C1 [Example 1.388]
10 to 1000 nM | COc1cc(-c2cccc(-c3cccc(NC(=O)c4cccn(CC(N)=O)c4=O)c3C)c2C)cc(F)c1CN [Example 1.288]
< 10 nM | COc1cc(-c2cccc(-c3cccc(NC(=O)c4cccn(CCO)c4=O)c3C)c2C)cc(F)c1CN1CC(C(=O)O)C1 [Example 1.277]
< 10 nM | COc1cc(-c2cccc(-c3cccc(Nc4nccc5nccnc45)c3C)c2C)cc(F)c1CN1CC(C(=O)O)C1 [Example 1.273]
10 to 1000 nM | COc1cc(-c2cccc(-c3cccc(NC(=O)c4ccc(F)cn4)c3C)c2C)cc(F)c1CN1CC(C(=O)O)C1 [Example 1.359]
10 to 1000 nM | COc1cc(-c2cccc(-c3cccc(NC(=O)C4CCN(CCO)CC4)c3C)c2C)cc(F)c1CNCCO [Example 1.395]
10 to 1000 nM | COc1cc(-c2cccc(-c3cccc(NC(=O)c4ccc(CC(=O)O)cn4)c3C)c2C)cc(F)c1CN [Example 1.335]
< 10 nM | COc1cc(-c2cccc(-c3cccc(NC(=O)c4c[nH]c(=O)n(C)c4=O)c3C)c2C)cc(F)c1CN(C)C [Example 1.241]

Same assay, conditions: human PD-1/PD-L1 ELISA, plates coated with human PD-L1

IC50 | Compound
10 to 1000 nM | COc1cc(-c2cccc(-c3cccc(Nc4nccc5c4C(=O)N(C)CC5)c3C)c2C)cc(F)c1CNC[C@@H](C)O [Example 1.185]
< 10 nM | COc1cc(-c2cccc(-c3cccc(NC(=O)c4cn(C)c(=O)n(C)c4=O)c3C)c2C)cc(F)c1CNCCC1CCC(=O)N1 (stereo not shown) [Example 1.115]
< 10 nM | COc1cc(-c2cccc(-c3cccc(NC(=O)c4cn(C)c(=O)n(C)c4=O)c3C)c2C)cc(F)c1CNC1COC1 [Example 1.177]
< 10 nM | COc1cc(-c2cccc(-c3cccc(NC(=O)c4cn(C)c(=O)n(C)c4=O)c3C)c2C)cc(F)c1CNCCN1CCCC1=O [Example 1.118]
< 10 nM | COc1cc(-c2cccc(-c3cccc(NC(=O)c4nn(C)c(=O)n(C)c4=O)c3C)c2C)cc(F)c1CNCC(N)=O [Example 1.064]
< 10 nM | COc1cc(-c2cccc(-c3cccc(NC(=O)c4cn(C)c(=O)n(C)c4=O)c3C)c2C)cc(F)c1CNCCC1CNC(=O)C1 (stereo not shown) [Example 1.082]
< 10 nM | COc1cc(-c2cccc(-c3cccc(NC(=O)c4cccn(C)c4=O)c3C)c2C)cc(F)c1CNC(C)C [Example 1.170]
< 10 nM | COc1cc(-c2cccc(-c3cccc(NC(=O)c4cn(C)c(=O)n(C)c4=O)c3C)c2Cl)cc(F)c1CN[C@H]1CCC(=O)NC1 [Example 1.018]
10 to 1000 nM | COc1cc(-c2cccc(-c3cccc(NC(=O)c4cncn(C)c4=O)c3C)c2C)cc(F)c1CN(C)[C@@H]1CNC(=O)C1 [Example 1.084]
< 10 nM | COc1cc(-c2cccc(-c3cccc(NC(=O)c4cncn(C)c4=O)c3C)c2C)cc(F)c1CN[C@@H]1CCC[C@H]1O [Example 1.160]

Same assay, conditions: plate-coated human PD-L1, biotinylated Human PD-1, absorbance at 450 nm

IC50 | Compound
< 10 nM | COc1cc(-c2cccc(-c3cccc(NC(=O)c4c[nH]c(=O)n(C)c4=O)c3Cl)c2Cl)cc(F)c1CNCC1(C(N)=O)CC1 [Example 2.026]
< 10 nM | COc1cc(-c2cccc(-c3cccc(NC(=O)c4cn(C)c(=O)n(C)c4=O)c3C)c2Cl)cc(F)c1CN[C@@H]1CCOC[C@H]1O [Example 2.102]
< 10 nM | COc1cc(-c2cccc(-c3cccc(NC(=O)c4c[nH]c(=O)n(C)c4=O)c3Cl)c2Cl)cc(F)c1CN[C@@H]1CCOC[C@@H]1O [Example 2.030]
< 10 nM | COc1cc(-c2cccc(-c3cccc(NC(=O)c4cn(C)c(=O)n(C)c4=O)c3C)c2Cl)cc(F)c1CN1CCC(O)CC1 [Example 2.020]
